According to patent publication US20080262088A1, “METHODS, COMPOUNDS, AND COMPOSITIONS FOR TREATING METABOLIC DISORDERS AND DIABETES” (priority 2006, published 2008):

Experiments:
SHR rats = assay: In vivo preventive study of pancreatic function in SHR rats (streptozotocine, OGTT); parameters: species or system rat; conditions: low dose streptozotocine after initiation of treatment, PDS vs vehicle
Description: SHR rats are non-diabetic rats but having insulin resistance. Rats are divided in two groups which are administered PDS or vehicle respectively. After initiation of treatment, all rats are administered streptozotocine at low dose with the aim to chemically destroy a portion of Langerhans islets. Both treated and control rats are challenged by an Oral Glucose Tolerance Test (OGTT) and glucose levels are measured.

[1] = test system: Peroxisome proliferator-activated receptor gamma (PPARG); assay: Kidney gene expression, Gene Chip Rat Exon 1.0 ST Array; assay type: in vivo; conditions: pooled whole kidney RNA, treated vs controls
Description: The effect of the PDS treatment on kidney gene expression was also measured. Briefly, whole kidney RNA was isolated and pooled from 2-4 individual rats from each group (controls and treated group). The polled RNA was then processed using a Gene Chip Rat Exon 1.0 ST Array™ (Affimetrix) according to the manufacturer's standard procedure and analyzed for differential expression between the two groups on gene and exon levels. […] PPARG is a well known transcriptional regulator that regulates lipid, glucose and amino acid metabolism, and this receptor is the main target of the thiazolidinediones used in diabetes mellitus and other diseases that feature insulin resistance.

[2] = test system: Zucker Diabetic Fatty rat (ZDF); assay: Kidney histology (glomerular global score) in ZDF rats; assay type: in vivo; conditions: after 12 weeks
Excerpt: FIG. 7 is a bar graph showing glomerular global score for control and treated satient Zucker diabetic obese male rats after 12 weeks, according to Example 11(a). Categories: (−) no global score; (±) mild global score; (+) mild to moderate global score; (++) moderate global score.
(§1) Thirty-two, 6 week-old male ZDF rats (Charles River, St. Constant, Canada) were randomized in 2 groups, Treated (PDS; in 1% sucrose drinking solution) and Control (1% sucrose drinking solution), and studied for a period of 12 weeks. […] All rats were fed a high fat/high sucrose diabetogenic diet (Harlan™ TD95217). Body weight, food and drinking solution consumption were measured on a daily basis. Twelve rats from each group were individually housed in metabolic cages for a period of 24 hours once a week. […] At the end of each metabolic cage session, urine output was measured, and blood and urine samples were collected in order to quantify serum and/or urine levels of PDS, creatinine, protein, uric acid, triglycerides, glucose, and electrolytes. […]
Histology was performed on both controls and PDS-treated animals. […] The global score was calculated by summing up the number of observations for each histological parameter (mesangial matrix expansion, glomerular cell proliferation, basement membrane thickening, and glomerular enlargement). […]

[3] = test system: Zucker Diabetic Fatty rat (ZDF); assay: Effect on pancreatic function in ZDF rats (satient insulin, glycemia, diuresis); assay type: in vivo
Description: (§2) Thirty-two, 6 week-old male ZDF rats (Charles River, St. Constant, Canada) were randomized in 2 groups, Treated (PDS; in 1% sucrose drinking solution) and Control (1% sucrose drinking solution), and studied for a period of 12 weeks. […] All rats were fed a high fat/high sucrose diabetogenic diet (Harlan™ TD95217). Body weight, food and drinking solution consumption were measured on a daily basis. Twelve rats from each group were individually housed in metabolic cages for a period of 24 hours once a week. During week 2, 3, 4 and 5, rats placed in metabolic cages received drinking solution but were placed in fasting condition, whereas during weeks 1, […], 6 to 12, rats were given ad libitum access to food and drinking solution. At the end of each metabolic cage session, urine output was measured, and blood and urine samples were collected in order to quantify serum and/or urine levels of PDS, creatinine, protein, uric acid, triglycerides, glucose, and electrolytes. These variables were used to calculate creatinine clearance (Ccr) and proteinuria, and to evaluate general metabolic and renal health status. At the end of the study, the animals were sacrificed and selected organs were kept for further analysis (e.g. weighing, histology).
As is known, diabetes may be due to a lack of insulin secretion (type I diabetes), or to a resistance of peripheral tissues to insulin action (more insulin is needed to decrease blood glucose to the same level as controls in the same amount of time; type II diabetes). The Zucker obese diabetic rat employed in this study is a model of insulin resistance. Hyperglycemia is almost always observed in this model, despite the initially very high circulating insulin levels that fall down with the progression of the disease due to pancreatic beta cell exhaustion. A beneficial treatment is expected to increase insulin secretion, decrease glucose levels by other means or increase glucose utilization by peripheral tissues.
Results for each time point are represented as median and mean ± SEM. Trend statistics are calculated by two-way ANOVA with or without repeated measures, with p<0.05 considered statistically significant.

[4] = test system: Zucker Diabetic Fatty rat (ZDF); assay: Histology of the pancreas in ZDF rats (islets of Langerhans per field); assay type: in vivo; conditions: week 12, significant difference, FIG. 11
Excerpt: FIG. 11 is a box graph showing distribution of number of islets of Langerhans per field counted during histology of the pancreas from control and treated Zucker diabetic obese male rats at week 12, according to Example 11(b). Box plot lower limit represents the 25th percentile, whereas higher limit represents 75th percentile. Whiskers above and below indicate 90th and 10th percentiles, and median and mean values are represented by solid and dashed lines respectively.
as §1

[5] = test system: Zucker Diabetic Fatty rat (ZDF); assay: In vivo preventive study of renal function and metabolic status in ZDF rats (serum/urine chemistry, body and organ weights)
Excerpt: The compound 1,3 Propanedisulfonic Acid Disodium Salt (PDS) was selected for a preventive study of renal function in the Zucker rat (ZDF) model as well as its effect on metabolic status and diabetes.
A leading study model for DN is the inbred Zucker Diabetic Fatty rat (ZDF). Given a diabetogenic diet, the ZDF rat will closely mimic human adult onset diabetes (Type 2) and related complications including glomerulosclerosis and renal damage earlier than when fed a normal diet (i.e. 14-18 weeks of age). In addition, obesity, mild hypertension, hypertriglyceridemia, hypercholesterolemia, fasting hyperglycemia, impaired glucose tolerance and hyperinsulinemia, are all major phenotypes featured in the ZDF rat.
as §2
This pre-clinical investigation evaluates the role and efficacy of compound 1,3-Propanedisulfonic Acid Disodium Salt (PDS) (Eprodisate Disodium) as a preventive treatment for DN and related pathophysiology in the ZDF rat model. The primary measured outcome is the attenuation/reversal of creatinine clearance deterioration and of proteinuria. The secondary measured outcome is the impact on the metabolic status in this model.
Results for each time point are represented as median or mean ± SEM. Trend statistics are calculated by two-way ANOVA with or without repeated measures, with p<0.05 considered statistically significant.

[6] = test system: patients with AA amyloidosis; conditions: previously tested clinically in patients with AA amyloidosis; cited from earlier work
[7] = end of 12-week study, not shown

O=S(=O)([O-])CCCS(=O)(=O)[O-].[Na+].[Na+] [PDS, 1,3 Propanedisulfonic Acid Disodium Salt]
glucose levels after Oral Glucose Tolerance Test (OGTT) (SHR rats): lower glucose levels than control | PPARG gene expression in kidney, increase in treatment group [1]: 1.85 fold | number of genes down regulated in the treatment group ([1]; not shown): 43 genes | number of genes up regulated in the treatment group ([1]; not shown): 75 genes | glomerular global score (histology) ([2]; p=0.001, FIG. 7, sum of mesangial matrix expansion, glomerular cell proliferation, basement membrane thickening, glomerular enlargement): lowest scores | kidney pathology (histology), treated vs control ([2]; not shown separately): less pathology | glycemia, serum glucose by hexokinase (HK) II method, PDS-treated vs control ([3]; by week 10, p<0.001, FIG. 9A): significantly lower | glycemia, capillary blood glucose by glucose meter kit, PDS-treated vs control ([3]; by week 10, p=0.002, FIG. 9B): significantly lower | satient serum insulin (RIA), PDS-treated vs control ([3]; end of the experiment (12 weeks), fed animals, FIG. 8): more than twice as high | diuresis (urine production), PDS-treated vs control ([3]; from week 9, FIG. 10): lower | number of islets of Langerhans per field, treated vs controls [4]: higher number | creatinine clearance (body weight corrected), treated vs control ([5]; 12 weeks of treatment, FIG. 2B, slight tendency to be higher weeks 6-8): no significant difference | clearance of uric acid, treated vs control ([5]; FIG. 4B, body weight corrected): better in treated animals | proteinuria (urine protein content), treated vs control ([5]; after 8 weeks measurable effect, difference significant at weeks ten and twelve, FIG. 3): lesser proteinuria | kidney size, treated vs controls ([5]; end of 12-week study): tended to be smaller | heart weight/BW ratio, treated vs control [5, 7]: no significant difference | kidney weight/BW ratio, treated vs control [5, 7]: no significant difference | pancreas weight/BW ratio, treated vs control [5, 7]: no significant difference | serum triglycerides, PDS-treated vs controls ([5]; from onset of treatment throughout the study, p=0.002, FIG. 6A): consistently lower | adverse effect at the beginning of the study (little decline in body weight) ([5]; higher concentration of PDS, week 1 (avg 4270 mg/kg/day)): diarrhea | bodyweight of the treated vs. the control animals ([5]; male ZDF rats, PDS in 1% sucrose drinking solution, 12 weeks, data not shown): not significant difference | serum creatinine, treated vs control ([5]; satient ZDF rats, 12 weeks, FIG. 2A, stable in both groups): tendency for lower values between treatment weeks 6 and 9 | hyperkalemia (serum potassium), control vs treated ([5]; starting at week 7, weeks 8 to 12, p<0.001, FIG. 5): significantly more severe in the control group | serum cholesterol, PDS-treated vs control ([5]; treatment week 10, FIG. 6B): significantly lower | serum cholesterol ([5]; week 12, control 7.1 mmol/L, p<0.001): 4.5 mmol/L | uric acid levels in serum, control group relative to PDS-treated animals ([5]; weeks 6 to 12, FIG. 4A): consistently higher than values from the PDS-treated animals

O=S(=O)(O)CCCS(=O)(=O)O [1,3-propanedisulfonic acid]
safety in humans [6]: can be safely used in humans
